System: Energy system protein genes
Assay: DNA chip mRNA expression in yeast, energy system protein genes (Table 4)
Assay type: cell-based, Saccharomyces cerevisiae S288C
In short: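 Cells were grown at 25° C. in YPD, treated at logarithmic phase for 2 h with a chemical at a concentration inhibiting growth but not causing death, and compared with untreated cultures. Labeled cDNA was hybridized to a DNA chip carrying all yeast genes, and the expression ratio was taken from scanner fluorescence.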

manganese ethylenebis(dithiocarbamate) [(8)]
The level of expressed mRNA in the presence of chemical substance/The level of expressed mRNA in the absence of chemical substance (yeast gene YAL060W): 0.9
The level of expressed mRNA in the presence of chemical substance/The level of expressed mRNA in the absence of chemical substance (yeast gene YBL058W, cells incubated two hours with the chemical substance): 1.2
The level of expressed mRNA in the presence of chemical substance/The level of expressed mRNA in the absence of chemical substance (yeast gene YBL099W, cells incubated two hours with the chemical substance): 0.8
The level of expressed mRNA in the presence of chemical substance/The level of expressed mRNA in the absence of chemical substance (yeast gene YBR001C, cells incubated two hours with the chemical substance): 1.3
The level of expressed mRNA in the presence of chemical substance/The level of expressed mRNA in the absence of chemical substance (yeast gene YBR185C, cells incubated two hours with the chemical substance): 1.1
The level of expressed mRNA in the presence of chemical substance/The level of expressed mRNA in the absence of chemical substance (yeast gene YBR221C, cells incubated two hours with the chemical substance): 0.8
The level of expressed mRNA in the presence of chemical substance/The level of expressed mRNA in the absence of chemical substance (yeast gene YCL040W): 0.7
The level of expressed mRNA in the presence of chemical substance/The level of expressed mRNA in the absence of chemical substance (yeast gene YCR012W): 0.8
The level of expressed mRNA in the presence of chemical substance/The level of expressed mRNA in the absence of chemical substance (yeast gene YCR046C, cells incubated two hours with the chemical substance): 0.9
The level of expressed mRNA in the presence of chemical substance/The level of expressed mRNA in the absence of chemical substance (yeast gene YCR105W, cells incubated two hours with the chemical substance): 1.4
The level of expressed mRNA in the presence of chemical substance/The level of expressed mRNA in the absence of chemical substance (yeast gene YDL021W): 2.7
The level of expressed mRNA in the presence of chemical substance/The level of expressed mRNA in the absence of chemical substance (yeast gene YDL067C, cells incubated two hours with the chemical substance): 1.1
The level of expressed mRNA in the presence of chemical substance/The level of expressed mRNA in the absence of chemical substance (yeast gene YDL078C, cells incubated two hours with the chemical substance): 1.0
The level of expressed mRNA in the presence of chemical substance/The level of expressed mRNA in the absence of chemical substance (yeast gene YDL107W, cells incubated two hours with the chemical substance): 1.8
The level of expressed mRNA in the presence of chemical substance/The level of expressed mRNA in the absence of chemical substance (yeast gene YDL174C): 0.8
The level of expressed mRNA in the presence of chemical substance/The level of expressed mRNA in the absence of chemical substance (yeast gene YDL181W, cells incubated two hours with the chemical substance): 0.6
The level of expressed mRNA in the presence of chemical substance/The level of expressed mRNA in the absence of chemical substance (yeast gene YDR001C): 0.9
The level of expressed mRNA in the presence of chemical substance/The level of expressed mRNA in the absence of chemical substance (yeast gene YDR050C, cells incubated two hours with the chemical substance): 1.3
The level of expressed mRNA in the presence of chemical substance/The level of expressed mRNA in the absence of chemical substance (yeast gene YDR079W, cells incubated two hours with the chemical substance): 2.6
The level of expressed mRNA in the presence of chemical substance/The level of expressed mRNA in the absence of chemical substance (yeast gene YDR178W, cells incubated two hours with the chemical substance): 0.9
The level of expressed mRNA in the presence of chemical substance/The level of expressed mRNA in the absence of chemical substance (yeast gene YDR231C): 1.3
The level of expressed mRNA in the presence of chemical substance/The level of expressed mRNA in the absence of chemical substance (yeast gene YDR298C, cells incubated two hours with the chemical substance): 1.2
The level of expressed mRNA in the presence of chemical substance/The level of expressed mRNA in the absence of chemical substance (yeast gene YDR377W, cells incubated two hours with the chemical substance): 1.3
The level of expressed mRNA in the presence of chemical substance/The level of expressed mRNA in the absence of chemical substance (yeast gene YDR529C, cells incubated two hours with the chemical substance): 1.3
The level of expressed mRNA in the presence of chemical substance/The level of expressed mRNA in the absence of chemical substance (yeast gene YEL024W, cells incubated two hours with the chemical substance): 1.0
The level of expressed mRNA in the presence of chemical substance/The level of expressed mRNA in the absence of chemical substance (yeast gene YEL039C, cells incubated two hours with the chemical substance): 1.1
The level of expressed mRNA in the presence of chemical substance/The level of expressed mRNA in the absence of chemical substance (yeast gene YER178W): 0.8
The level of expressed mRNA in the presence of chemical substance/The level of expressed mRNA in the absence of chemical substance (yeast gene YFL057C): 18.0
The level of expressed mRNA in the presence of chemical substance/The level of expressed mRNA in the absence of chemical substance (yeast gene YFR053C): 2.8
The level of expressed mRNA in the presence of chemical substance/The level of expressed mRNA in the absence of chemical substance (yeast gene YGL018C, cells incubated two hours with the chemical substance): 0.8
The level of expressed mRNA in the presence of chemical substance/The level of expressed mRNA in the absence of chemical substance (yeast gene YGL062W): 0.8
The level of expressed mRNA in the presence of chemical substance/The level of expressed mRNA in the absence of chemical substance (yeast gene YGL187C, cells incubated two hours with the chemical substance): 0.7
The level of expressed mRNA in the presence of chemical substance/The level of expressed mRNA in the absence of chemical substance (yeast gene YGL191W, cells incubated two hours with the chemical substance): 1.6
The level of expressed mRNA in the presence of chemical substance/The level of expressed mRNA in the absence of chemical substance (yeast gene YGL205W, cells incubated two hours with the chemical substance): 1.2
The level of expressed mRNA in the presence of chemical substance/The level of expressed mRNA in the absence of chemical substance (yeast gene YGL256W, cells incubated two hours with the chemical substance): 1.0
The level of expressed mRNA in the presence of chemical substance/The level of expressed mRNA in the absence of chemical substance (yeast gene YGR043C): 2.6
The level of expressed mRNA in the presence of chemical substance/The level of expressed mRNA in the absence of chemical substance (yeast gene YGR062C, cells incubated two hours with the chemical substance, 25° C., YPD medium): 0.8
The level of expressed mRNA in the presence of chemical substance/The level of expressed mRNA in the absence of chemical substance (yeast gene YGR087C, cells incubated two hours with the chemical substance): 0.8
The level of expressed mRNA in the presence of chemical substance/The level of expressed mRNA in the absence of chemical substance (yeast gene YGR174C, cells incubated two hours with the chemical substance): 1.6
The level of expressed mRNA in the presence of chemical substance/The level of expressed mRNA in the absence of chemical substance (yeast gene YGR192C): 1.1
The level of expressed mRNA in the presence of chemical substance/The level of expressed mRNA in the absence of chemical substance (yeast gene YGR244C): 1.8
The level of expressed mRNA in the presence of chemical substance/The level of expressed mRNA in the absence of chemical substance (yeast gene YGR254W): 1.4
The level of expressed mRNA in the presence of chemical substance/The level of expressed mRNA in the absence of chemical substance (yeast gene YHR179W): 3.3
The level of expressed mRNA in the presence of chemical substance/The level of expressed mRNA in the absence of chemical substance (yeast gene YIL160C): 1.2
The level of expressed mRNA in the presence of chemical substance/The level of expressed mRNA in the absence of chemical substance (yeast gene YIR031C, cells incubated two hours with the chemical substance): 1.0
The level of expressed mRNA in the presence of chemical substance/The level of expressed mRNA in the absence of chemical substance (yeast gene YJL052W): 1.5
The level of expressed mRNA in the presence of chemical substance/The level of expressed mRNA in the absence of chemical substance (yeast gene YJL121C, cells incubated two hours with the chemical substance): 1.0
The level of expressed mRNA in the presence of chemical substance/The level of expressed mRNA in the absence of chemical substance (yeast gene YJL166W, cells incubated two hours with the chemical substance): 1.4
The level of expressed mRNA in the presence of chemical substance/The level of expressed mRNA in the absence of chemical substance (yeast gene YJL216C, cells incubated two hours with the chemical substance): 1.9
The level of expressed mRNA in the presence of chemical substance/The level of expressed mRNA in the absence of chemical substance (yeast gene YJR009C): 1.1
